Experiments:
human EphB4 receptor = molecular target: T1, human EphB4 receptor (Homo sapiens, UniProt P54760); experiment: EphB4 kinase assay on recombinant Ephrin B4 receptor domains (33P filter assay); assay type: biochemical
T1 construct: made in house; host or cells: Sf9 or Sf21 insect cells (baculovirus)
T1 sequence (P54760 566-987): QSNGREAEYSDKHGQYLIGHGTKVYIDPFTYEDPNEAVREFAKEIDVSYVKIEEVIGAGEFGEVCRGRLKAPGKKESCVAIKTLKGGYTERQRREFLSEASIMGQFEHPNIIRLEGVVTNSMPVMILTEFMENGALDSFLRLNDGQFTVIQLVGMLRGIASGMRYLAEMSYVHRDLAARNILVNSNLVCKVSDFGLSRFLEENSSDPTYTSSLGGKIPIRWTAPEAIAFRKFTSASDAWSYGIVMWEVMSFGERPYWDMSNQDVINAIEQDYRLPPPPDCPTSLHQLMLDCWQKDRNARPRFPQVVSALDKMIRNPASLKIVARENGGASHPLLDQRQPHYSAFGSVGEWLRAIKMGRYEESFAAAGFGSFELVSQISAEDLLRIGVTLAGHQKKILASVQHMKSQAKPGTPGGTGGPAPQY
From the text: Recombinant baculovirus are generated that express the amino acid region 566-987 of the human EphB4 receptor (SwissProt Database, Accession No. P54760). GST sequence is cloned into pFastBac1® vector (Invitrogen Life Technologies, Basel, Switzerland) and PCR amplified. cDNAs encoding EphB4-receptor domains, respectively are cloned in frame 3′prime to the GST sequence into this modified FastBac1 vector to generate pBac-to-Bac™ donor vectors. Single colonies arising from the transformation are inoculated to give overnight cultures for small scale plasmid preparation. […] By automated sequencing the inserts and approximately 50 bp of the flanking vector sequences are confirmed on both strands.
Production of viruses: Viruses for each of the kinases are made according to the protocol supplied by GIBCO if not stated otherwise. In brief, transfer vectors containing the kinase domains are transfected into the DH10Bac cell line (GIBCO) and plated on selective agar plates. […]
Purification of GST-tagged kinases: The centrifuged cell lysate is loaded onto a 2 mL glutathione-sepharose column (Pharmacia) and washed three times with 10 mL of 25 mM Tris-HCl, pH 7.5, 2 mM EDTA, 1 mM DTT, 200 mM NaCl. […] Membranes are counted after drying at ambient temperature, mounting in Packard TopCount96-well frame, and addition of 10 μL/well of Microscint™ (Packard). […]

human EphB4 = molecular target: T2, human EphB4 (Homo sapiens, UniProt P54760); experiment: EphB4 receptor autophosphorylation sandwich ELISA in transfected A375 human melanoma cells; assay type: cell-based; conditions: EphB4 receptor auto-phosphorylation in vitro on cells
T2 construct: expressed in transfected cells; host or cells: A375 human melanoma cells (ATCC CRL-1619)
T2 sequence (P54760 16-987): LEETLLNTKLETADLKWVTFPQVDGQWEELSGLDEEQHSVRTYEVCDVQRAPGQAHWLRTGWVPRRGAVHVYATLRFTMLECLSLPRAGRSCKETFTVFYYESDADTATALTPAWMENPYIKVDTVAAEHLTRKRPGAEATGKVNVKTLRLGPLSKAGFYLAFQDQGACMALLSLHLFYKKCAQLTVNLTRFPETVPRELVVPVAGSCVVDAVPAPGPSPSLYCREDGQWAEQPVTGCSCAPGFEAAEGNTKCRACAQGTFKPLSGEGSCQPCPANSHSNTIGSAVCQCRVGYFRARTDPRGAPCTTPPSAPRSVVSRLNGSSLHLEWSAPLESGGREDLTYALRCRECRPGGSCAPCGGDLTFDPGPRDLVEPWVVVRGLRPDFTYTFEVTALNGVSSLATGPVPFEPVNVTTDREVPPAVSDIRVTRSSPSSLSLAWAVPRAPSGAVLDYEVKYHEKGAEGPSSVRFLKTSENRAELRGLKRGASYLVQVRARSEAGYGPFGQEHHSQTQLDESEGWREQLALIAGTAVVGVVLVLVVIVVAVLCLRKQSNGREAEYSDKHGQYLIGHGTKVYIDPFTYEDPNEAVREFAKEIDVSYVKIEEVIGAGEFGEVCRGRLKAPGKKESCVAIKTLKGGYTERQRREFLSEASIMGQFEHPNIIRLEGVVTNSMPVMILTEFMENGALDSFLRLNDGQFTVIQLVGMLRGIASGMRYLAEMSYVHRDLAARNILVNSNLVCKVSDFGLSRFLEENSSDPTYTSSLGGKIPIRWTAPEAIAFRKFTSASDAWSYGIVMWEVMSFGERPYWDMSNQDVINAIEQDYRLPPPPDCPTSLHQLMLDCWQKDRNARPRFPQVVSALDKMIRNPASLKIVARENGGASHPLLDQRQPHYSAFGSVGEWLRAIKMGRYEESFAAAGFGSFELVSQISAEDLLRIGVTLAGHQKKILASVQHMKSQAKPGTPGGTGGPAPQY
Experimental: Alternatively, EphB4 receptor autophosphorylation can be measured as follows: The inhibition of EphB4 receptor autophosphorylation can be confirmed with an in vitro experiment in cells such as transfected A375 human melanoma cells (ATCC Number: CRL-1619), which permanently express human EphB4 (SwissProt AccNo P54760), are seeded in complete culture medium (with 10% fetal calf serum ═FCS) in 6-well cell-culture plates and incubated at 37° C. under 5% CO2 until they show about 90% confluency. The compounds to be tested are then diluted in culture medium (without FCS, with 0.1% bovine serum albumin) and added to the cells. (Controls comprise medium without test compounds). Ligand induced autophosphorylation is induced by the addition of 1 microg/ml soluble ephrinB2-Fc (s-ephrinB2-Fc: R&D Biosystems, CatNr 496-EB) and 0.1 microM ortho-vanadate. After a further 20 minutes incubation at 37° C., the cells are washed twice with ice-cold PBS (phosphate-buffered saline) and immediately lysed in 200 μl lysis buffer per well. The lysates are then centrifuged to remove the cell nuclei, and the protein concentrations of the supernatants are determined using a commercial protein assay (PIERCE). The lysates can then either be immediately used or, if necessary, stored at −20° C. […]

c-Abl kinase = molecular target: T3, c-Abl kinase (Homo sapiens, UniProt P00519); experiment: c-Abl protein-tyrosine kinase filter binding assay; assay type: biochemical
T3 construct: The His-tagged kinase domain of c-Abl is cloned and expressed in the baculovirus/Sf9 system; His; made in house; host or cells: Sf9 insect cells (baculovirus)
T3 sequence (P00519 242-493 limits assumed): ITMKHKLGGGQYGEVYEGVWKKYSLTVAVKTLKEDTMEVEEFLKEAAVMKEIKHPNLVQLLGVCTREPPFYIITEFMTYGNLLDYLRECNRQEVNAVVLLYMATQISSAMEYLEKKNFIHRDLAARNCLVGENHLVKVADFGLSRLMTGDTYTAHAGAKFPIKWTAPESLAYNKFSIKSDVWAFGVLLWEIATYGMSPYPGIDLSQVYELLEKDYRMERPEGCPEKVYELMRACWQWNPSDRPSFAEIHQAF
Experimental: The His-tagged kinase domain of c-Abl is cloned and expressed in the baculovirus/Sf9 system as described by Bhat et al. in J. Biol. Chem. 1997; 272:16170-16175. A protein of 37 kD (c-Abl kinase) is purified by a two-step procedure over a Cobalt metal chelate column followed by an anion exchange column with a yield of 1-2 mg/L of Sf9 cells (Bhat et al., reference cited). The purity of the c-Abl kinase is >90% as judged by SDS-PAGE after Coomassie blue stai-ning. The assay contains (total volume of 30 μL): c-Abl kinase (50 ng), 20 mM Tris.HCl, pH 7.5, 10 mM MgCl2, 10 μM Na3VO4, 1 mM DTT and 0.06 μCi/assay [γ33 P]-ATP (5 μM ATP) using 30 μg/mL poly-Ala, Glu, Lys, Tyr-6:2:5:1 (Poly-AEKY, Sigma P1152) in the presence of 1% DMSO. Reactions are terminated by adding 10 μL of 250 mM EDTA and 30 μL of the reaction mixture is transferred onto Immobilon-PVDF membrane (Millipore, Bedford, Mass., USA) previously soaked for 5 min with methanol, rinsed with water, then soaked for 5 min with 0.5% H3PO4 and mounted on vacuum manifold with disconnected vacuum source. After spotting all samples, vacuum is connected and each well rinsed with 200 μL 0.5% H3PO4. […] Membranes are counted after drying at ambient temperature, mounting in Packard TopCount 96-well frame, and addition of 10 μL/well of Microscint™ (Packard).

COc1ccc(-c2cnn3c(N)c(-c4cccc(Cl)c4)c(CN4CCNCC4)nc23)cc1OC [Example 1, 6-(3-Chloro-phenyl)-3-(3,4-dimethoxy-phenyl)-5-piperazin-1-ylmethyl-pyrazolo[1,5-a]pyrimidin-7-ylamine]
1 to 1000 nM: EphB4 IC50 (human EphB4 receptor) | EphB4 ELISA - IC50 (human EphB4) | c-Abl IC50 (c-Abl kinase)

COc1ccc(-c2cnn3c(N)c(-c4ccc(F)cc4)c(CN4CCNCC4)nc23)cc1OC [Example 2, 3-(3,4-Dimethoxy-phenyl)-6-(4-fluoro-phenyl)-5-piperazin-1-ylmethyl-pyrazolo[1,5-a]pyrimidin-7-ylamine]
1 to 1000 nM: EphB4 IC50 (human EphB4 receptor) | EphB4 ELISA - IC50 (human EphB4) | c-Abl IC50 (c-Abl kinase)
